# Laboratory results reported in publication PMC6946680, “Modulation of brain cation-Cl^− cotransport via the SPAK kinase inhibitor ZT-1a” (Nature Communications, 2020).
# Values joined by “and” are separate entries in the source; they are usually repeats but may differ in a detail not shown here. Equal values may be shown once.
# How the values were obtained:
# KCC3 pThr1048 [1] = assay: Pharmacodynamic study, KCC3 phosphorylation in brain of naive mice; type: in vivo, mouse
# Experimental: (§1) To define ZT-1a efficacy in naive mice in vivo, we examined phosphorylation of SPAK, NKCC1, and NCC in kidney, and phosphorylation of SPAK, NKCC1, and KCC3 in brain, after intraperitoneal (i.p.) administration of either ZT-1a (10, 30, 50, and 100 mg/kg) or Closantel (50 mg/kg as a reference). […]
# (§2) 5. Pharmacodynamic (PD) study
# (§3) Male C57BL/6j wild-type mice (6 weeks old, Charles River Laboratories Edinburgh UK) were treated with ZT-1a (in DMSO, Sigma) by subcutaneous injection at doses of 0, 3, 10, 30, 50 and 100 mg/kg. 50 mg/kg Closantel was administered as a comparative control. Vehicle control mice were treated with an equal volume of DMSO solution. One hour after administration, mice were sacrificed by cervical dislocation, and kidney and brain tissues were rapidly dissected and snap-frozen in liquid nitrogen. Age- […]
# (§4) free conditions at the University of Dundee (UK) as described in our recent study1. Animal experiments and breeding were approved by the University of Dundee ethical committee and performed under a […]
# (§5) Policy on the Care, Welfare and Treatment of Animals, and regulations set by the University of Dundee and the U.K. Home Office. […]
# (§6) Brain and kidney tissues were collected at 60 min post injection, and proteins subjected to immunoblot were probed with antibodies specific for phosphorylated forms of SPAK,
# NKCC1 pThr203/207/212 [2] = assay: Pharmacodynamic study, NKCC1 phosphorylation in brain of naive mice; type: in vivo, mouse
# Experimental: as §1, §2, §3, §4, §5, §6
# [3] = Immunoblot of KCC site 1 phosphorylation (KCC3 Thr991) in HEK-293 cells transfected with FLAG-KCC3; type: cell-based, human
# SPAK phosphorylation [4] = assay: Pharmacodynamic study, SPAK phosphorylation in kidney of naive mice; type: in vivo, mouse; details: Fig S8b (kidney); 50 mg/kg
# Experimental: as §1, §2, §3, §4, §5, §6
# SPAK pSer373 = assay: Immunoblot of SPAK/OSR1 p-Ser373/Ser325 in HEK-293 cells; type: cell-based, human; details: single replicates
# [5] = biological target: human SPAK 452-547(C-term) with WNK peptide (RFQV) (Homo sapiens, UniProt Q9UEW8); assay: Fluorescence polarization of SPAK–WNK peptide interaction; type: binding; details: SPAK FL, Fig S5b
# KCC3 pThr1048 [6] = assay: Immunoblot of KCC site 2 phosphorylation (KCC3 Thr1048) in HEK-293 cells transfected with FLAG-KCC3; type: cell-based, human; details: single replicates
# NKCC1 pThr203/207/212 [7] = assay: Pharmacodynamic study, NKCC1 phosphorylation in kidney of naive mice; type: in vivo, mouse; details: Fig S8b (kidney); 50 mg/kg
# Experimental: as §1, §2, §3, §4, §5, §6
# C57BL/6J mice = assay: Kaplan-Meier survival of naive and ischemic stroke mice at 25 mg/kg; type: in vivo, mouse; details: for Days elapsed: Fig S12, single mice
# Experimental: We compared the neuroprotective efficacy of Closantel with that of the pan-WNK-kinase inhibitor WNK463. […] Moreover, toxicity of Closantel and ZT-1a at 25 mg/kg in naive and ischemic stroke mice was reflected in Kaplan–Meier survival curves (Supplementary Fig. 12).
# Supplemental Fig. 12 Kaplan-Meier survival curve of naïve and ischemic stroke mice treated with […]
# Normal naïve C57BL/6J mice, or mice after tMCAO randomly received Closantel or ZT-1a treatment […]
# was monitored for 0-7 days post-treatment. No mortality was detected in the naïve mice treated with Closantel or ZT-1a. However, all ischemic stroke mice treated with Closantel died within 2 days, with a […]
# median survival of 1 day. […]
# days). n = 3 per group (naïve+Closantel or naive+ZT-1a), n = 6 per group (tMCAO+vehicle or tMCAO+Closantel or tMCAO+ZT-1a), *p < 0.05, Log-rank test.
# SPAK phosphorylation [8] = assay: Pharmacodynamic study, SPAK phosphorylation in brain of naive mice; type: in vivo, mouse; details: Fig S8a (brain); 50 mg/kg
# Experimental: as §1, §2, §3, §4, §5, §6
# [9] = tested on: mouse model of ischemic stroke (tMCAO); assay: Infarct volume and hemispheric swelling (TTC) 24 h after tMCAO; type: in vivo; details: for Infarct volume (mm3): Fig 9b; for Infarct volume (mm3) / Hemisphere swelling (%): individual mice; for Hemisphere swelling (%): Fig 9c
smiles,measurement,setting,value
"Cc1cc(C(C#N)c2ccc(Cl)cc2)c(Cl)cc1NC(=O)c1cc(I)cc(I)c1O (stereo not shown) [Closantel, reference compound]",KCC3 phosphorylation (pThr1048) in naive brains,KCC3 pThr1048 [1]; 60 min after administration,neither drug had reduced
same,pTh1048 / KCC3,"KCC3 pThr1048 [1]; Fig S8a (brain), 50 mg/kg",0.84 and 0.87 and 0.95 and 0.91
same,NKCC1 phosphorylation (pThr203/207/212) in naive brains,NKCC1 pThr203/207/212 [2]; 60 min after administration,neither drug had reduced
same,pTh203.207.212 / NKCC1,"NKCC1 pThr203/207/212 [2]; Fig S8a (brain), 50 mg/kg",0.63 and 0.62 and 0.71 and 0.68
same,T906/KCC2 band intensity ratio,"[3]; Hypotonic low Cl, 1 uM, single replicates",0.202 and 0.217 and 0.223 and 0.249
same,T906/KCC2 band intensity ratio,"[3]; Hypotonic low Cl, 3 uM, single replicates",0.23 and 0.214 and 0.223 and 0.251
same,T906/KCC2 band intensity ratio,"[3]; Hypotonic low Cl, 10 uM, single replicates",0.186 and 0.19 and 0.176 and 0.21
same,T906/KCC2 band intensity ratio,"[3]; Isotonic control, 1 uM, single replicates (Fig 2 source data)",0.244 and 0.296 and 0.316 and 0.327
same,T906/KCC2 band intensity ratio,"[3]; Isotonic control, 3 uM, single replicates",0.256 and 0.224 and 0.253 and 0.285
same,T906/KCC2 band intensity ratio,"[3]; Isotonic control, 10 uM, single replicates",0.18 and 0.181 and 0.194 and 0.22
same,pSer373 / SPAK,SPAK phosphorylation [4],0.54 and 0.38 and 0.32 and 0.46
same,pSPAK/SPAK band intensity ratio,"SPAK pSer373; Hypotonic low Cl, 1 uM",0.156 and 0.123 and 0.1673 and 0.133
same,pSPAK/SPAK band intensity ratio,"SPAK pSer373; Hypotonic low Cl, 3 uM",0.102 and 0.11 and 0.1063 and 0.108
same,pSPAK/SPAK band intensity ratio,"SPAK pSer373; Hypotonic low Cl, 10 uM",0.032 and 0.058 and 0.043 and 0.041
same,pSPAK/SPAK band intensity ratio,"SPAK pSer373; Isotonic control, 1 uM",0.118 and 0.131 and 0.126 and 0.122
same,pSPAK/SPAK band intensity ratio,"SPAK pSer373; Isotonic control, 3 uM",0.056 and 0.061 and 0.054 and 0.063
same,pSPAK/SPAK band intensity ratio,"SPAK pSer373; Isotonic control, 10 uM",0.039 and 0.027 and 0.033 and 0.031
same,Inhibitor vs SPAK FL (fluorescence polarization signal),[5]; Inhibitor 1e-5 μM,127.9 and 118 and 130
same,Inhibitor vs SPAK FL (fluorescence polarization signal),[5]; Inhibitor 0.0001 μM,125.3 and 112 and 127
same,Inhibitor vs SPAK FL (fluorescence polarization signal),[5]; Inhibitor 0.001 μM,121.9 and 115.3 and 123
same,Inhibitor vs SPAK FL (fluorescence polarization signal),[5]; Inhibitor 0.003 μM,123.1 and 116.4 and 120.4
same,Inhibitor vs SPAK FL (fluorescence polarization signal),[5]; Inhibitor 0.01 μM,124.7 and 111.9 and 117.8
same,Inhibitor vs SPAK FL (fluorescence polarization signal),[5]; Inhibitor 0.03 μM,123.5 and 114.7 and 122.6
same,Inhibitor vs SPAK FL (fluorescence polarization signal),[5]; Inhibitor 0.1 μM,126.5 and 109.5 and 116.8
same,Inhibitor vs SPAK FL (fluorescence polarization signal),[5]; Inhibitor 0.3 μM,114.7 and 105.4 and 109.5
same,Inhibitor vs SPAK FL (fluorescence polarization signal),[5]; Inhibitor 1 μM,106.2 and 99.8 and 105.3
same,Inhibitor vs SPAK FL (fluorescence polarization signal),[5]; Inhibitor 3 μM,104.5 and 98.4 and 100.5
same,Inhibitor vs SPAK FL (fluorescence polarization signal),[5]; Inhibitor 10 μM,103.1 and 97.1 and 101.4
same,Inhibitor vs SPAK FL (fluorescence polarization signal),[5]; Inhibitor 100 μM,104.1 and 98.1 and 100.6
same,T1007/KCC2 band intensity ratio,"KCC3 pThr1048 [6]; Hypotonic low Cl, 1 uM",0.34 and 0.36 and 0.343 and 0.37
same,T1007/KCC2 band intensity ratio,"KCC3 pThr1048 [6]; Hypotonic low Cl, 3 uM",0.16 and 0.144 and 0.163 and 0.152
same,T1007/KCC2 band intensity ratio,"KCC3 pThr1048 [6]; Hypotonic low Cl, 10 uM",0.113 and 0.046 and 0.08 and 0.1
same,T1007/KCC2 band intensity ratio,"KCC3 pThr1048 [6]; Isotonic control, 1 uM",0.358 (2×) and 0.326 and 0.311
same,T1007/KCC2 band intensity ratio,"KCC3 pThr1048 [6]; Isotonic control, 3 uM",0.141 and 0.106 and 0.123 and 0.134
same,T1007/KCC2 band intensity ratio,"KCC3 pThr1048 [6]; Isotonic control, 10 uM",0.071 and 0.062 and 0.054 and 0.067
same,pTh203.207.212 / NKCC1,NKCC1 pThr203/207/212 [7],0.43 and 0.52 and 0.41 and 0.37
same,mortality of ischemic stroke mice,C57BL/6J mice; 25 mg/kg,100%
same,mortality in naive mice,"C57BL/6J mice; 25 mg/kg i.p., 0-7 days, n = 3",No mortality
same,time by which all ischemic stroke mice died,"C57BL/6J mice; 25 mg/kg i.p., tMCAO",≤ 2 days
same,median survival of ischemic stroke mice,"C57BL/6J mice; 25 mg/kg i.p., tMCAO, n = 6",1 days
same,Days elapsed,C57BL/6J mice; MCAO mice,1 days and 2 days
same,Days elapsed,C57BL/6J mice; mice without MCAO,7 days
same,toxicity in mice at higher doses,C57BL/6J mice; ~25 mg/kg,toxicity
same,pSer373 / SPAK,SPAK phosphorylation [8],0.54 and 0.68 and 0.62 and 0.52
same,infarct volume and hemispheric swelling,[9]; Closantel 0.1 mg/kg,ineffective
same,infarct volume and hemispheric swelling,[9]; Closantel 1.0 or 2.5 mg/kg at 3 and 8 h post reperfusion,reduced infarct volume and hemispheric swelling in a dose-dependent manner
same,Infarct volume (mm3),[9]; group Closantel 0.1,52.64 mm3 and 37.67 mm3 and 66.15 mm3 and 91.58 mm3 and 31.83 mm3 and 54.68 mm3 and 37.74 mm3 and 60.16 mm3
same,Infarct volume (mm3),[9]; group Closantel 1.0,45.07 mm3 and 60.3 mm3 and 40.86 mm3 and 27.89 mm3 and 44.96 mm3 and 50.26 mm3 and 35.08 mm3 and 36.9 mm3
same,Infarct volume (mm3),[9]; group Closantel 2.5,19.91 mm3 and 50.06 mm3 and 19.99 mm3 and 41.45 mm3 and 32.49 mm3
same,Hemisphere swelling (%),[9]; group Closantel 0.1,17.46% and 13.77% and 21.57% and 18.71% and 11.16% and 11.73% and 9.03% and 12%
same,Hemisphere swelling (%),[9]; group Closantel 1.0,14.03% and 8.76% and 11.37% and 10.48% and 8.67% and 13.59% and 10.61% and 15.28%
same,Hemisphere swelling (%),[9]; group Closantel 2.5,3.84% and 16.57% and 8.91% and 6.76% and 4.41%
